Reference: patent publication US8927547B2, “Pyrimidine derivatives” (Noviga Research AB, priority 2010, dated 2015)

Key:
Format in all cases: cell-based
A2780/Adr = test: FMCA, A2780/Adr doxorubicin-resistant ovarian cancer; settings: read-out: EC50 (μM) in various cancer cell lines: A2780/Adr
From the text: (§1) The Fluorometric Microculture Cytotoxicity Assay, FMCA, is a three day non-clonogenic microplate-based cell viability assay used for measurement of the cytotoxic and/or cytostatic effect of compounds in vitro (Lindhagen, E., et al. Nat Protoc, 2008. 3(8): p. 1364-9). FMCA (Larsson, R. and P. Nygren, Anticancer Res, 1989. 9(4): p. 1111-9) represents a valuable method to measure cytotoxicity in a number of cell types, both cell lines and primary cells from patients (Larsson, R., et al., Int J Cancer, 1992. 50(2): p. 177-85; Fridborg, H., et al., Eur J Cancer, 1999. 35(3): p. 424-32; Dhar, S., et al., Br J Cancer, 1996. 74(6): p. 888-96).
(§2) FMCA is based on the principle that fluorescein diacetate (FDA) is converted to the fluorescent probe fluorescein by esterases in the plasma membranes of living cells. For experiments, 96 or 384-well microplates are prepared with compounds and stored at −70° C. until use. Cells are then seeded into the drug-prepared plates and placed in an incubator for 72 h. On the last day of incubation, the plates are washed and a buffer containing FDA is added and incubated with the cells for 45 minutes. Finally the fluorescence per well is measured in a fluorometer and a Survival Index % (SI) for each compound-treated well is calculated with the equation: Compound-treated cells minus blank divided by control cells minus blank. A high SI-value indicates a large percentage of living cells and vice versa.
(§3) Compounds of the invention as well as kinase inhibitors sorafenib, sunitinib, dasatinib, and pazopanib (reference compounds) were diluted with PBS to a concentration which was ten-times higher than the desired starting concentration. Then, a Biomek 2000 liquid handling system was employed to serially dilute the compounds in a deep-well 384-well plate. From this plate, assay plates containing 5 μl compound per well were prepared with the Biomek 2000. Certain compounds precipitated when diluted with PBS, and these compounds were therefore prepared in a 96-well plate manually as described above using culture medium RPMI 1640 instead of PBS.
(§4) The compounds were also tested at five concentrations, with five times serial dilution on the following cell types: CCRF-CEM, hTERT-RPE1 (normal retinal epithelial cells), hRPTEpiC (normal renal cells) and PBMC (peripheral blood mononuclear cells). Each experiment was performed three times, except for PBMC and hRPTEpiC, which were performed twice. SI-values were calculated, graphs were plotted using GraphPadPrism 5.0 (GraphPad Software Inc. La Jolla, Calif.) and EC50-values for each cell type and compound were determined from the curves.
(§5) The compounds of the invention were also tested on further cancer cell lines related to colon cancer (HCT116; see e.g Brattain M G, et al. Cancer Res. 1981, 41, 1751-1756), breast cancer (MCF7; see e.g. Soule H D, et al. J. Natl. Cancer Inst. 1973, 51, 1409-1416), teniposide-resistant leukaemia (CEM/VM1; see e.g. Danks M K et al. Cancer Res. 1987, 47, 1297-1301), lung cancer (H69; see e.g. Gazdar A F, et al. Cancer Res. 1980, 40, 3502-3507), doxorubicin-resistant lung cancer (H69AR; see e.g. Mirski S E, et al. Cancer Res. 1987, 47, 2594-2598), myeloma (RPMI 8226; see e.g. Matsuoka Y, et al. Proc. Soc. Exp. Biol. Med. 1967, 125, 1246-1250), doxorubicin-resistant myeloma (8226/Dox40; see e.g. Dalton W S et al. Blood 1989, 15,747-752), lymphoma (U-937, see e.g. Sundstrom C, et al. Int. […]

BxPC-3 = test: FMCA, BxPC-3 pancreatic cancer; settings: Homo sapiens, read-out: EC50 (μM) in various cancer cell lines: BxPC-3
From the text: as §1
as §2, with “versa. […]” for “versa.”
as §4, with “Each experiment was performed three times, except for PBMC and hRPTEpiC, which were performed twice.” left out, “curves. […]” for “curves.”

MCF7 = test: FMCA, MCF7 breast cancer; settings: Homo sapiens, read-out: EC50 (μM) in various cancer cell lines: MCF7
From the text: as §1, §2, §3, §4
as §5, with “Int. J. Cancer 1976, 17, 565-577), vincristin-resistant lymphoma (U-937-vcr; see e.g. Botling J, et al. Int J Cancer 1994, 15; 58 (2), 269-274), ovarian cancer (A2780; see e.g. Hamilton T C, et al. Semin Oncol. 1984, 11, 285-298), doxorubicin-resistant ovarian cancer (A2780/Adr), cisplatin-resistant ovarian cancer (A2780/Cis; see e.g. Behrens B C, et al. Cancer Res. 1987, 47, 414-418), renal cancer (ACHN; see e.g. Borden E C, et al. Cancer Res. 1982, 42(12), 4948-4953), pancreatic cancer (PANC-1, BxPC-3, and MIA PaCa-2; see e.g. Lieber M, et al. Int.” for “Int.”

[1] = system: CCRF-CEM cancer cells - leukaemia; test: Fluorometric Microculture Cytotoxicity Assay (FMCA), CCRF-CEM; settings: Homo sapiens, 72 h incubation
From the text: as §1, §2
In subsequent experiments, compounds were tested, along with kinase inhibitors (dasatinib, pazopanib, sorafenib, and sunitinib) as described above. Initially, the acute lymphoblastic leukaemia cell line CCRF-CEM (see e.g. Foley G E, et al. Cancer 1965, 18, 522-529) was used throughout. In the assay plates, medium was added to six empty wells (blank wells) and wells were filled with PBS and cell suspension and served as control wells. SI-values were then calculated for each compound-treated well as described above. All experiments were conducted twice and a new batch of plates was prepared for each experiment.
For dose-response experiments, 384-well plates were prepared as follows:
as §3, §4

A2780/Cis = test: FMCA, A2780/Cis cisplatin-resistant ovarian cancer; settings: A2780cis, read-out: EC50 (μM) in various cancer cell lines: A2780/Cis
From the text: as §1, §2, §3, §4, §5

HCT116 = test: FMCA, HCT116 colon cancer; settings: Homo sapiens, HCT-116, read-out: EC50 (μM) in various cancer cell lines: HCT116
From the text: as §1, §2, §3, §4
as §5, with “Int. J. Cancer 1976, 17, 565-577), vincristin-resistant lymphoma (U-937-vcr; see e.g. Botling J, et al. Int J Cancer 1994, 15; 58 (2), 269-274), ovarian cancer (A2780; see e.g. Hamilton T C, et al. Semin Oncol. 1984, 11, 285-298), doxorubicin-resistant ovarian cancer (A2780/Adr), cisplatin-resistant ovarian cancer (A2780/Cis; see e.g. Behrens B C, et al. Cancer Res. 1987, 47, 414-418), renal cancer (ACHN; see e.g. Borden E C, et al. Cancer Res. 1982, 42(12), 4948-4953), pancreatic cancer (PANC-1, BxPC-3, and MIA PaCa-2; see e.g. Lieber M, et al. Int.” for “Int.”

MIA PaCa-2 = test: FMCA, MIA PaCa-2 pancreatic cancer; settings: Homo sapiens, read-out: EC50 (μM) in various cancer cell lines: MIA PaCa-2
From the text: as §1
as §2, with “versa. […]” for “versa.”
as §4, with “Each experiment was performed three times, except for PBMC and hRPTEpiC, which were performed twice.” left out, “curves. […]” for “curves.”

H69 = test: FMCA, H69 lung cancer; settings: Homo sapiens, NCI-H69, read-out: EC50 (μM) in various cancer cell lines: H69
From the text: as §1, §2, §3, §4
as §5, with “Int. J. Cancer 1976, 17, 565-577), vincristin-resistant lymphoma (U-937-vcr; see e.g. Botling J, et al. Int J Cancer 1994, 15; 58 (2), 269-274), ovarian cancer (A2780; see e.g. Hamilton T C, et al. Semin Oncol. 1984, 11, 285-298), doxorubicin-resistant ovarian cancer (A2780/Adr), cisplatin-resistant ovarian cancer (A2780/Cis; see e.g. Behrens B C, et al. Cancer Res. 1987, 47, 414-418), renal cancer (ACHN; see e.g. Borden E C, et al. Cancer Res. 1982, 42(12), 4948-4953), pancreatic cancer (PANC-1, BxPC-3, and MIA PaCa-2; see e.g. Lieber M, et al. Int.” for “Int.”

- EC50 (A2780/Adr): 1.71 µM
- EC50 (BxPC-3): < 0.1 µM
- EC50 (MCF7): 4.92 µM
- EC50 (A2780/Cis): 0.32 µM
- EC50 (HCT116): 6.2 µM
- EC50 (MIA PaCa-2): < 0.1 µM
- EC50 (H69): 11.6 µM
SMILES: Cc1cc(NCc2ccc3[nH]ncc3c2)nc(Nc2cccc3[nH]ccc23)n1 [Example 37, N^4-(1H-indazol-5-ylmethyl)-N^2-(1H-indol-4-yl)-6-methylpyrimidine-2,4-diamine]
- EC50 [1]: 420 nM
